# In PubChem BioAssay (NCI):
#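 Tested at 5 concentrations; 48 h exposure; 96-well plates; endpoints linearly interpolated, else capped at highest concentration. At the GI50, growth is halved. TGI is the concentration that stops growth completely.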
# Key:
# Experiment in all cases: DTP human tumour cell line panel, 48 h
# 786-0 renal = tested on: 786-0 renal
# A498 renal = tested on: A498 renal
# A549 NSCLC = tested on: A549 NSCLC
# ACHN renal = tested on: ACHN renal
# BT-549 breast = tested on: BT-549 breast
# CAKI-1 renal = tested on: CAKI-1 renal
# CCRF-CEM leukemia = tested on: CCRF-CEM leukemia
# COLO 205 colon = tested on: COLO 205 colon
# DU-145 prostate = tested on: DU-145 prostate
# EKVX NSCLC = tested on: EKVX NSCLC
# HCC-2998 colon = tested on: HCC-2998 colon
# HCT-116 colon = tested on: HCT-116 colon
# HCT-15 colon = tested on: HCT-15 colon
# HL-60(TB) leukemia = tested on: HL-60(TB) leukemia
# HOP-62 NSCLC = tested on: HOP-62 NSCLC
# HOP-92 NSCLC = tested on: HOP-92 NSCLC
# HS 578T breast = tested on: HS 578T breast
# HT29 colon = tested on: HT29 colon
# IGROV1 ovarian = tested on: IGROV1 ovarian
# K-562 leukemia = tested on: K-562 leukemia
# KM12 colon = tested on: KM12 colon
# LOX IMVI melanoma = tested on: LOX IMVI melanoma
# M14 melanoma = tested on: M14 melanoma
# MALME-3M melanoma = tested on: MALME-3M melanoma
# MCF7 breast = tested on: MCF7 breast
# MDA-MB-231 breast = tested on: MDA-MB-231 breast
# MDA-MB-435 = tested on: MDA-MB-435
# MOLT-4 leukemia = tested on: MOLT-4 leukemia
# NCI-H226 lung = tested on: NCI-H226 lung
compound,measurement,setting,value
CC(C)CSc1nc(Nc2ccccc2)c(C#N)c(-c2ccc(F)cc2)n1,GI50,786-0 renal,1.9 µM
same,TGI,786-0 renal,5.19 µM
same,GI50,A498 renal,1.19 µM
same,TGI,A498 renal,6.13 µM
same,GI50,A549 NSCLC,1.71 µM
same,TGI,A549 NSCLC,18.8 µM
same,GI50,ACHN renal,0.403 µM
same,TGI,ACHN renal,1.47 µM
same,GI50,BT-549 breast,7.24 µM
same,TGI,BT-549 breast,32.3 µM
same,GI50,CAKI-1 renal,0.486 µM
same,TGI,CAKI-1 renal,2.46 µM
same,GI50,CCRF-CEM leukemia,5.53 µM
same,TGI,CCRF-CEM leukemia,> 100 µM
same,GI50,COLO 205 colon,1.86 µM
same,TGI,COLO 205 colon,20.1 µM
same,GI50,DU-145 prostate,11 µM
same,TGI,DU-145 prostate,27.7 µM
same,GI50,EKVX NSCLC,1.73 µM
same,TGI,EKVX NSCLC,16.5 µM
same,GI50,HCC-2998 colon,13.1 µM
same,TGI,HCC-2998 colon,> 100 µM
same,GI50,HCT-116 colon,2.01 µM
same,TGI,HCT-116 colon,11.9 µM
same,GI50,HCT-15 colon,9.06 µM
same,TGI,HCT-15 colon,> 100 µM
same,GI50,HL-60(TB) leukemia,> 100 µM
same,TGI,HL-60(TB) leukemia,> 100 µM
same,GI50,HOP-62 NSCLC,2.1 µM
same,TGI,HOP-62 NSCLC,12.9 µM
same,GI50,HOP-92 NSCLC,0.605 µM
same,TGI,HOP-92 NSCLC,2.63 µM
same,GI50,HS 578T breast,1.6 µM
same,TGI,HS 578T breast,11 µM
same,GI50,HT29 colon,14.5 µM
same,TGI,HT29 colon,> 100 µM
same,GI50,IGROV1 ovarian,0.702 µM
same,TGI,IGROV1 ovarian,10 µM
same,GI50,K-562 leukemia,5.31 µM
same,TGI,K-562 leukemia,> 100 µM
same,GI50,KM12 colon,48.2 µM
same,TGI,KM12 colon,> 100 µM
same,GI50,LOX IMVI melanoma,2.98 µM
same,TGI,LOX IMVI melanoma,21.4 µM
same,GI50,M14 melanoma,6 µM
same,TGI,M14 melanoma,21 µM
same,GI50,MALME-3M melanoma,2.27 µM
same,TGI,MALME-3M melanoma,10.6 µM
same,GI50,MCF7 breast,22.8 µM
same,TGI,MCF7 breast,> 100 µM
same,GI50,MDA-MB-231 breast,2.25 µM
same,TGI,MDA-MB-231 breast,13 µM
same,GI50,MDA-MB-435,13 µM
same,TGI,MDA-MB-435,42.2 µM
same,GI50,MOLT-4 leukemia,11 µM
same,TGI,MOLT-4 leukemia,> 100 µM
same,GI50,NCI-H226 lung,3.79 µM
same,TGI,NCI-H226 lung,20.1 µM
